According to patent EP4631490A1, “ACTIVATOR AND SKIN CONDITION IMPROVING AGENT” (Nippon Shokubai Co., Ltd., priority 2022, dated 2024):

Experiments:
[1] = Measurement of critical micelle concentration (surface tension, platinum suspension plate method); assay type: physicochemical; details: critical micelle concentration from surface tension measurement
Protocol: A highly functional surface tensiometer (DY-500 (available from Kyowa Interface Science Co., Ltd.) was used to perform surface tension measurement by a platinum suspension plate method, and critical micelle concentrations (CMCs) of the STL C14, the STL C16, the STL C18, sodium lauryl sulfate, sodium deoxycholate, and sodium caprylate were calculated in accordance with a common method. The results are described in Table 4.

[2] = Foam property evaluation (dynamic foam analyzer); assay type: physicochemical; details: 0.5% aqueous solution, pH 8.0, water hardness 20°dH, 25°C; for Creaminess of foam Bubble area after 20 seconds: 20 seconds after stirring was stopped; for Creaminess of foam Bubble area after 600 seconds: 600 seconds after stirring was stopped; for Foam retention evaluation Foam change rate: smaller = better foam retention
Protocol: Thereafter, an average bubble area of foams was determined based on the images, and creaminess (foamability) of the foams was evaluated according to the following criteria. Note that the creaminess of the foams is characterized by having a small final bubble diameter (measured as average bubble area). The foams generated from the aqueous solutions containing the STL C14, the STL C16, or the STL C18 had small bubble areas, and thus it was considered that creamy foams could be formed. • ⊚ (good): The bubble area was 20000 µm^2 or less. • ∘ (passed): The bubble area was 20001 µm^2 or more and 30000 µm^2 or less. • Δ (slightly poor): The bubble area was 30001 µm^2 or more and 40000 µm^2 or less. • × (poor): The bubble area was 40001 µm^2 or more. A foam change rate was calculated using the following equation. It can be determined that the smaller the foam change rate is, the better the foam retention is, in other words, the better the foaming durability is. […]

L929 mouse fibroblasts = details: values of L. Vian et al., Toxicol in vitro, 9(2), 185-190, 1995; cited from earlier work
Zein powder = assay: Protein denaturation test (dissolution of Zein powder); details: 0.5% aqueous solution, pH 8.0; 0.03 g Zein powder in 10 mL; room temperature, 2 hours; index of skin irritation
Protocol: 0.03 g of Zein powder (FUJIFILM Wako Pure Chemical Corporation) was added to the aqueous solutions of the STL. After stirring at room temperature and 1200 rpm for 2 hours, the Zein powder-added solutions were transferred to centrifuge tubes, respectively, and centrifuged at 6200 rpm for 10 seconds to precipitate and remove undissolved zein powder. The protein concentrations in the solutions were measured using a microvolume spectrophotometer NanoDrop (NanoDrop Technologies).
The protein denaturation test was performed in the same manner using sodium lauryl sulfate, sodium deoxycholate, and sodium caprylate.

With sodium deoxycholate the “Surface activating ability evaluation CMC” value [1] was 6 mM, the “Creaminess of foam Bubble area after 20 seconds” value (shortened to “Creaminess … after 20 seconds”) [2] was “⊚ (⊚ (good): The bubble area was 20000 µm^2 or less.)” and the “Creaminess of foam Bubble area after 600 seconds” value (shortened to “Creaminess … after 600 seconds”) [2] was “× (× (poor): The bubble area was 40001 µm^2 or more.)”. The “Foam retention evaluation Foam change rate” value [2] was 2.62%, the “Cytotoxicity evaluation IC50” value (L929 mouse fibroblasts) was 90 ppm and the “Protein denaturation ability evaluation Protein dissolution concentration” value (Zein powder) was 430 µg/mL.

With `CCCCCCCC(=O)[O-].[Na+]` [Sodium caprylate, sodium caprylate] the “Surface activating ability evaluation CMC” value [1] was 300 mM, the “Creaminess … after 20 seconds” value [2] was “○” and the “Creaminess … after 600 seconds” value [2] was “Δ (Δ (slightly poor): The bubble area was 30001 µm^2 or more and 40000 µm^2 or less.)”. The “Foam retention evaluation Foam change rate” value [2] was 1.09% and the “Cytotoxicity evaluation IC50” value (L929 mouse fibroblasts) was 887 ppm.

For `CCCCCCCCCCCCOS(=O)(=O)[O-].[Na+]` [Sodium lauryl sulfate, sodium lauryl sulfate], the “Surface activating ability evaluation CMC” value [1] was 8 mM, the “Creaminess … after 20 seconds” value [2] was “⊚ (⊚ (good): The bubble area was 20000 µm^2 or less.)” and the “Creaminess … after 600 seconds” value [2] was “Δ (Δ (slightly poor): The bubble area was 30001 µm^2 or more and 40000 µm^2 or less.)”. The “Foam retention evaluation Foam change rate” value [2] was 2.81% and the “Cytotoxicity evaluation IC50” value (L929 mouse fibroblasts) was 86 ppm.
